Consider 15 compounds from US11780840B2 (Incyte Corporation, priority 2020, dated 2023).

The structures appear in SMILES notation.

Assay [1] deals with T1, pseudo-kinase domain (JH2, amino-acids 536-812 with 3 surface mutations W659A, W777A, F794H) of human Wild Type JAK2 (Homo sapiens, UniProt O60674, F794H/W659A/W777A).
T1 construct: pseudo-kinase domain (JH2, amino-acids 536-812 with 3 surface mutations W659A, W777A, F794H); His (C); Avi (biotinylated) (C); purchased BPS Bioscience 79463; host or cells: baculovirus expression system
The assay is described as follows: JAK2 LanthaScreen JH2-WT Binding Assay. Conditions: JAK2 JH2-WT (0.145 nM), 50 nM Fluorescent JAK2-JH2 Tracer, 1 hour at 25° C.; read-out: JH2 BIND WT. The essentials: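 Compounds, serially diluted, were mixed with 0.145 nM JH2 domain, 50 nM tracer and 0.25 nM streptavidin-Tb cryptate, then incubated 1 hour at 25° C before LanthaScreen reading. Wells containing 2 mM ATP defined non-specific binding. Four-parameter dose-response curves gave IC50.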
In general terms: TR-FRET usually uses a lanthanide donor and a delayed reading to cut background.

The target in assay [2] is T2, pseudo-kinase domain (JH2, amino-acids 536-812 with 3 surface mutations W659A, W777A, F794H) of human V617F mutant JAK2 (Homo sapiens, UniProt O60674, F794H/V617F/W659A/W777A).
T2 construct: pseudo-kinase domain (JH2, amino-acids 536-812 with 3 surface mutations W659A, W777A, F794H); His (C); Avi (biotinylated) (C); purchased BPS Bioscience 79498; host or cells: baculovirus expression system
As to the kind of experiment: JAK2 LanthaScreen JH2-V617F Binding Assay. The settings on record: JAK2 JH2-V617F (0.26 nM), 50 nM Fluorescent JAK2-JH2 Tracer, 1 hour at 25° C.; read-out: JH2 BIND V617F. The essentials: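 Serially diluted compounds are mixed with 0.26 nM protein, 50 nM fluorescent JAK2-JH2 tracer and 0.25 nM terbium-labelled streptavidin, then incubated 1 h at 25° C. LanthaScreen signal is read, and IC50 is fitted.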

Assay [3] deals with T3, catalytic domain (JH1, amino acids 826-1132) of human JAK2 (Homo sapiens, UniProt O60674).
T3 construct: catalytic domain (JH1, amino acids 826-1132) of human JAK2; FLAG (N); purchased Carna Biosciences 08-445-20N; host or cells: baculovirus expression system
As to the kind of experiment: JAK2 LanthaScreen JH1 Binding Assay. Conditions: JAK2 JH1 (1.5 nM), 50 nM fluorescent JAK2-JH1 tracer, 2 hours at 25° C.; read-out: JH1 BIND. The method, boiled down:
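TR-FRET tracer-displacement format: compound IC50 from four-parameter curves after 2 h at 25° C. Reaction held 1.5 nM biotinylated, FLAG-tagged JH1 (aa 826-1132), 50 nM tracer, 0.5 nM Streptavidin-Tb, pH 7.5 Tris buffer; 2 mM ATP set nonspecific background.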

T3 sequence (O60674 826-1132): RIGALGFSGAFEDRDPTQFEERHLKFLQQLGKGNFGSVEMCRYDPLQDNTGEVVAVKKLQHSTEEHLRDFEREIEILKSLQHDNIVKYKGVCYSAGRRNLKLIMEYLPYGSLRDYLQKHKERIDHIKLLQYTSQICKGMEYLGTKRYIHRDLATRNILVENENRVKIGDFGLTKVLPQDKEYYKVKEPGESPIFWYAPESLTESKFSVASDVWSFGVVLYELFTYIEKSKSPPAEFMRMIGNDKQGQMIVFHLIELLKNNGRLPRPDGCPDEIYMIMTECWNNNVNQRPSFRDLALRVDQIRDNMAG
T2 sequence (O60674 536-812 V617F/W659A/W777A/F794H): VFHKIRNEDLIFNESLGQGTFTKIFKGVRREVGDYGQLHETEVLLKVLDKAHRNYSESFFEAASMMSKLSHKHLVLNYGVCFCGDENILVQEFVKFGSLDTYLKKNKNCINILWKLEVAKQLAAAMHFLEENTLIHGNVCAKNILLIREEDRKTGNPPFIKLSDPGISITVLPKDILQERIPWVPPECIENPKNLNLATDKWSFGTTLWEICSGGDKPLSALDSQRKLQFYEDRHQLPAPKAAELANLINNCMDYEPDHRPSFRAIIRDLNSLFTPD
T1 sequence (O60674 536-812 W659A/W777A/F794H): as the sequence (O60674 536-812 V617F/W659A/W777A/F794H) above, with F82V counted along it

On to `CC(C)C(=O)c1[nH]c2ncc3c(c2c1-c1ccccc1)n(C)c(=O)n3C` [Example 43, 7-Isobutyryl-1,3-dimethyl-8-phenyl-3,6-dihydroimidazo [4,5-d]pyrrolo[2,3-b]pyridin-2(1H)-one], for which the IC50 in assay [1], in assay [2] and in assay [3] was > 1000 nM each time.
Turning to `CC(C)n1c(=O)n(C)c2cnc3[nH]c(-c4cnn(CS(C)(=O)=O)c4)c(-c4ccccc4)c3c21` [Example 44], the IC50 in assay [1] was ≤ 10 nM; in assay [2] it was ≤ 10 nM; in assay [3], 100 to 500 nM.
On to `Cn1c(=O)n(C2CC3CCC2C3)c2c3c(-c4ccccc4)c(-c4cnn(CS(C)(=O)=O)c4)[nH]c3ncc21` (stereo not drawn) [Example 45, 1-(Bicyclo[2.2.1]heptan-2-yl)-3-methyl-7-(1-((methylsulfonyl)methyl)-1H-pyrazol-4-yl)-8-phenyl-3,6-dihydroimidazo[4,5-d]pyrrolo[2,3-b]pyridin-2(1H)-one], for which the values for the IC50 in assay [1], in assay [2] and in assay [3] were ≤ 10 nM, 10 to 100 nM and 10 to 100 nM, respectively.
On to `Cn1c(=O)n(C2CCOCC2)c2c3c(-c4ccccc4)c(-c4ccc(CN5CCC(S(C)(=O)=O)CC5)cc4)[nH]c3ncc21` [Example 46, 3-Methyl-7-(4-((4-(methylsulfonyl)piperidin-1-yl)methyl)phenyl)-8-phenyl-1-(tetrahydro-2H-pyran-4-yl)-3,6-dihydroimidazo[4,5-d]pyrrolo[2,3-b] pyridin-2(1H)-one], for which the figures for the IC50 in assay [1], in assay [2] and in assay [3] were ≤ 10 nM, ≤ 10 nM and 500 to 1000 nM, respectively.
`Cn1ncc2cc(-c3c(-c4cnn(CC(C)(C)O)c4)[nH]c4ncc5c(c34)n(C3CCCC3)c(=O)n5C)ccc21` [Example 47, 1-Cyclopentyl-7-(1-(2-hydroxy-2-methylpropyl)-1H-pyrazol-4-yl)-3-methyl-8-(1-methyl-1H-indazol-5-yl)-3,6-dihydroimidazo[4,5-d]pyrrolo[2,3-b]pyridin-2(1H)-one]: the figures for the IC50 in assay [1], in assay [2] and in assay [3] were ≤ 10 nM, ≤ 10 nM and 100 to 500 nM, respectively.
Consider `Cn1cc(-c2[nH]c3ncc4c(c3c2-c2ccc3c(cnn3C)c2)n(C2CCOCC2)c(=O)n4C)cn1` [Example 48, 3-Methyl-8-(1-methyl-1H-indazol-5-yl)-7-(1-methyl-1H-pyrazol-4-yl)-1-(tetrahydro-2H-pyran-4-yl)-3,6-dihydroimidazo[4,5-d]pyrrolo[2,3-b]pyridin-2(1H)-one], for which the IC50 in assay [1] is ≤ 10 nM; in assay [2], ≤ 10 nM; in assay [3], > 1000 nM.
Turning to `Cn1c(=O)n(C2CCOCC2)c2c3c(-c4ccc(C5(C#N)CC5)cc4)c(-c4ccc(CN5CCC(S(C)(=O)=O)CC5)cc4)[nH]c3ncc21` [Example 49, 1-(4-(3-Methyl-7-(4-((4-(methylsulfonyl)piperidin-1-yl)methyl)phenyl)-2-oxo-1-(tetrahydro-2H-pyran-4-yl)-1,2,3,6-tetrahydroimidazo [4,5-d]pyrrolo[2,3-b]pyridin-8-yl)phenyl)cyclo-propane-1-carbonitrile], the IC50 in assay [1] was ≤ 10 nM; in assay [2] it was ≤ 10 nM; in assay [3], 100 to 500 nM.
Take `CC(C)n1c(=O)n(C)c2cnc3[nH]c(-c4cnn(CC(C)(C)O)c4)c(-c4ccc(C5(C#N)CC5)cc4)c3c21` [Example 50, 1-(4-(7-(1-(2-Hydroxy-2-methylpropyl)-1H-pyrazol-4-yl)-1-isopropyl-3-methyl-2-oxo-1,2,3,6-tetrahydroimidazo [4,5-d]pyrrolo[2,3-b]pyridin-8-yl)phenyl) cyclopropane-1-carbonitrile]: the IC50 in assay [1] was ≤ 10 nM; in assay [2], ≤ 10 nM; in assay [3], 500 to 1000 nM.
Turning to `Cn1c(=O)n(C2CCOCC2)c2c3c(-c4ccc(C5(N6CCOCC6)CC5)cc4)c(-c4cnn(CC(C)(C)O)c4)[nH]c3ncc21` [Example 51, 7-(1-(2-Hydroxy-2-methylpropyl)-1H-pyrazol-4-yl)-3-methyl-8-(4-(1-morpholinocyclo-propyl)phenyl)-1-(tetrahydro-2H-pyran-4-yl)-3,6-dihydroimidazo[4,5-d]pyrrolo[2,3-b]pyridin-2(1H)-one], the values for the IC50 in assay [1], in assay [2] and in assay [3] were ≤ 10 nM, ≤ 10 nM and > 1000 nM, respectively.
Regarding `Cn1ncc2cc(-c3c(-c4ccc(CN5CCC(S(C)(=O)=O)CC5)cc4)[nH]c4ncc5c(c34)n(C3CCCC3)c(=O)n5C)ccc21` [Example 52, 1-Cyclopentyl-3-methyl-8-(1-methyl-1H-indazol-5-yl)-7-(4-((4-(methylsulfonyl)piperidin-1-yl)methyl)phenyl)-3,6-dihydroimidazo[4,5-d]pyrrolo[2,3-b]pyridin-2(1H)-one], the IC50 in assay [1] is ≤ 10 nM; in assay [2], ≤ 10 nM; in assay [3], 100 to 500 nM.
As to `Cn1ncc2cc(-c3c(-c4cnn(Cc5ccncc5)c4)[nH]c4ncc5c(c34)n(C3CCCC3)c(=O)n5C)ccc21` [Example 53, 1-Cyclopentyl-3-methyl-8-(1-methyl-1H-indazol-5-yl)-7-(1-(pyridin-4-ylmethyl)-1H-pyrazol-4-yl)-3,6-dihydroimidazo[4,5-d]pyrrolo[2,3-b]pyridin-2(1H)-one], the values for the IC50 in assay [1], in assay [2] and in assay [3] were ≤ 10 nM, ≤ 10 nM and 100 to 500 nM, respectively.
Consider `COCCn1cc(-c2[nH]c3ncc4c(c3c2-c2ccc3c(cnn3C)c2)n(C2CCCC2)c(=O)n4C)cn1` [Example 54, 1-Cyclopentyl-7-(1-(2-methoxyethyl)-1H-pyrazol-4-yl)-3-methyl-8-(1-methyl-1H-indazol-5-yl)-3,6-dihydroimidazo[4,5-d]pyrrolo[2,3-b] pyridin-2(1H)-one], for which the results for the IC50 in assay [1], in assay [2] and in assay [3] were ≤ 10 nM, ≤ 10 nM and 100 to 500 nM, respectively.
In the case of `CC(C)n1c(=O)n(C)c2cnc3[nH]c(-c4cnn(CC(C)(C)O)c4)c(-c4ccc5c(cnn5C)c4)c3c21` [Example 55, 7-(1-(2-Hydroxy-2-methylpropyl)-1H-pyrazol-4-yl)-1-isopropyl-3-methyl-8-(1-methyl-1H-indazol-5-yl)-3,6-dihydroimidazo[4,5-d]pyrrolo[2,3-b] pyridin-2(1H)-one], the IC50 in assay [1] was ≤ 10 nM; in assay [2] it was ≤ 10 nM; in assay [3] it was > 1000 nM.
Regarding `Cn1ncc2cc(-c3c(-c4cnn(CC(F)F)c4)[nH]c4ncc5c(c34)n(C3CCCC3)c(=O)n5C)ccc21` [Example 56, 1-Cyclopentyl-7-(1-(2,2-difluoroethyl)-1H-pyrazol-4-yl)-3-methyl-8-(1-methyl-1H-indazol-5-yl)-3,6-dihydroimidazo[4,5-d]pyrrolo[2,3-b]pyridin-2(1H)-one], the IC50 is ≤ 10 nM in assay [1], ≤ 10 nM in assay [2] and 100 to 500 nM in assay [3].
For `Cn1c(=O)n(C2CCCC2)c2c3c(-c4cc5cnccc5s4)c(-c4cnn(CC(F)F)c4)[nH]c3ncc21` [Example 57, 1-Cyclopentyl-7-(1-(2,2-difluoroethyl)-1H-pyrazol-4-yl)-3-methyl-8-(thieno[3,2-c]pyridin-2-yl)-3,6-dihydroimidazo[4,5-d]pyrrolo[2,3-b]pyridin-2(1H)-one], the IC50 in assay [1] was ≤ 10 nM; in assay [2], ≤ 10 nM; in assay [3], 100 to 500 nM.
